The text below walks through data of US7294648B2, “Anthranyl derivatives having an anticholecystokinin activity (anti-cck-1), a process for their preparation, and pharmaceutical use thereof” (Rottapharm S.p.A., priority 2002, dated 2007).

Where two headings read alike, the source gives them in different places.

In one experiment the target is T1, CCK-1 receptors (Rattus norvegicus, UniProt P30551).
T1 construct: The pancreatic acini obtained from the outbred male rat pancreas of the Sprague Dawley strain; from tissue; host or cells: isolated pancreatic acini of male Sprague Dawley rats
T1 sequence (P30551 1-444): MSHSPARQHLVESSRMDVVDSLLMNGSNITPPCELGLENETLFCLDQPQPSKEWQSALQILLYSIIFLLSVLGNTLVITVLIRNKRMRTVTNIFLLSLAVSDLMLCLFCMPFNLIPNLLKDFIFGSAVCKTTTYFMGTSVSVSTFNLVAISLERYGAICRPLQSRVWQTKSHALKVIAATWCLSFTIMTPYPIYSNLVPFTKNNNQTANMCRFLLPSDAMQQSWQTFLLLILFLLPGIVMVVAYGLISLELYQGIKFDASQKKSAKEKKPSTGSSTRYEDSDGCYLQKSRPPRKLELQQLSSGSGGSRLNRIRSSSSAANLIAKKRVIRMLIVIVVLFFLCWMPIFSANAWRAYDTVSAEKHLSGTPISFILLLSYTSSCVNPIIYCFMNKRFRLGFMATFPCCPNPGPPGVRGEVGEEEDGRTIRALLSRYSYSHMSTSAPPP
Put plainly: Inhibition of binding of [125I]-BH-CCK-8 to isolated rat pancreatic acini. The following applies: for affinity for the CCK-1 receptors of the pancreatic acini of rat, in words: summary of Table 2. The procedure:
The pancreatic acini obtained from the outbred male rat pancreas of the Sprague Dawley strain, were incubated in the presence of radioactive tracers and the compound studied for 30 minutes at 37° C. After having discarded the supernatant, the radioactivity associated with the pellet was determined with a liquid scintillator. The specific binding was determined as the difference between the binding in the absence and in the presence of CCK-8, 1.10^−6M. […] The values of IC50 reported were calculated with the […] of a set of at least 3 experiences for each compound studied.

In experiment [1] the target is T2, CCK-2 receptor (Cavia porcellus, UniProt H0VZC5).
T2 construct: The incubation of the cerebral membranes together with the radioactive tracers and the compounds under study; from tissue; host or cells: cerebral cortex membranes of male albino Hartley guinea pigs
T2 sequence (H0VZC5 1-426): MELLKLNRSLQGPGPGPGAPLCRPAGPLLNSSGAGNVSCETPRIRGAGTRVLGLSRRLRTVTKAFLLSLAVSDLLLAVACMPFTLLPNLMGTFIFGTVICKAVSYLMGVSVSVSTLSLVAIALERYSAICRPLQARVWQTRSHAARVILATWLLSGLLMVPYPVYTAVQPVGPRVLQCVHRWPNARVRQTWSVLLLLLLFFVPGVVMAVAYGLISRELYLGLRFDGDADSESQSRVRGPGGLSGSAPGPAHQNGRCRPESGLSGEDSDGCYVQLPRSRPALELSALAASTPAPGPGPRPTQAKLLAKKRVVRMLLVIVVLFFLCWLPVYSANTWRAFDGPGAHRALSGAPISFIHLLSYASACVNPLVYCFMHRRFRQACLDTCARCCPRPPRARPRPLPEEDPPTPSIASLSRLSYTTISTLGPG
Nature of the experiment: Inhibition of the binding of [125I]-BH-CCK-8 to the cortical membrane of guinea pigs. Also on record: species or system guinea pig. The following applies: 120 minutes at 25° C.; 25 pM marked binder; at least 3 tests. As to the method: (§1) For this purpose binding tests were performed on cerebral cortex of male albino guinea pigs outbred from the Hartley strain, using as marked binder the [^125I]-BH-CCK-8 sulphate, according to the procedure described by Makovec F. [J. Med. Chem. 35, (1992),28].
(§2) The incubation of the cerebral membranes together with the radioactive tracers and the compounds under study was effected on multi-well plates for 120 minutes at 25° C. Each well contained membrane corresponding to about 0.5 mg of proteins/ml and 25 pM of marked binder in a total volume of 250 micro litres. The specific binding was determined as the difference between the binding in the absence and in the presence of CCK-8, 1.10^−6M. At the end of the incubation a rapid filtration of the plate was performed under vacuum and the radioactivity of the individual filters extracted from the wells was measured with a γ-emission counter. The results obtained are shown in Table 3, in which the tested compounds are indicated, the IC50 calculated with the regression method on a set of at least 3 tests for each compound studied and an index derived from the ratio of the affinity obtained for the two types of receptor CCK-2 and CCK-1.

In experiment [2] the test system is CCK-2 receptor. The description is as above. More on the design: species or system guinea pig. The settings on record: IC50 CCK-2 (guinea pig cortex) / IC50 CCK-1 (rat pancreatic acini, Table 2). The procedure: as §1, §2
Experiment [3] addresses T3, CCK-1 (guinea pig gall bladder) (Cavia porcellus, UniProt Q63931).
T3 construct: A guinea pig gall bladder stimulated in vitro by CCK-8; from tissue; host or cells: isolated guinea pig gall bladder
T3 sequence (Q63931 1-430): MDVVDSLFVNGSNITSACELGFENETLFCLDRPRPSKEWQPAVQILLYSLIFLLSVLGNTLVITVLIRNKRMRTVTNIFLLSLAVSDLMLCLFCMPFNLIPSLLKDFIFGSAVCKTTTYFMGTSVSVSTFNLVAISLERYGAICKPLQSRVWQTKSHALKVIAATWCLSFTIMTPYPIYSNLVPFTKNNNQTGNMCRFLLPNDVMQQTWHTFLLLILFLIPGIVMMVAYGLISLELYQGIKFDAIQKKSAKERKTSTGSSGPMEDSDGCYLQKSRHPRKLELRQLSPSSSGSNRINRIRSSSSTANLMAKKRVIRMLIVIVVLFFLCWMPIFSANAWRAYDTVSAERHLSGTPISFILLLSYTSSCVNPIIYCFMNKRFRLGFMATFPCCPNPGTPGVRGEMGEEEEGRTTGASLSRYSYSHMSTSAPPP
Nature of the experiment: Inhibition of the in vitro CCK-8 induced contraction of guinea pig gall bladder. It counts as cell-based. The settings on record: CCK-8 5 ng/ml; average of at least two experiments, 6-8 concentrations. From the text:
A guinea pig gall bladder stimulated in vitro by CCK-8 according to the method described by Makovec et al. was used as an experimental model. [Arzneim. Forsch. Drug Res. 35 (7), 1048 (1985)]. The results thus obtained are illustrated in the following Table 4 in which the values of IC50 (moles/litre) are reported.

Where [4] appears, read: 30 minutes at 37° C., at least 3 experiments, read-out: IC50, inhibition of binding of [125I]-BH-CCK-8 to isolated rat pancreatic acini.

As usually defined, the IC50 is the concentration needed to halve the response being measured. With `O=C(Nc1ccccc1C(=O)NC(CCc1ccccc1)C(=O)O)c1cc2ccccc2[nH]1` (centres unmarked) [Compound 20], the half-maximal inhibitory concentration (IC50) came out at 14 nM on CCK-1 receptors, 2220 nM on CCK-2 receptor [1] and 35 nM in experiment [3]. Also, in the experiment on CCK-2 receptor [2], the “index derived from the ratio of the affinity obtained for the two types of receptor CCK-2 and CCK-1” value (“index derived from the ratio” for short) is 158.6.
Take `Cc1ccccc1CCC(NC(=O)c1ccccc1NC(=O)c1cc2ccccc2[nH]1)C(=O)O` (centres unmarked) [Compound 25]: the values for the 50% inhibitory concentration (IC50) (on CCK-1 receptors (setting [4]); on CCK-2 receptor [1]; in experiment [3]) were 7 nM, more than 30000 nM and 8 nM, respectively. The “affinity for the CCK-1 receptors of the pancreatic acini of rat, in words” value (shortened to “affinity for the CCK-1 receptors”) at CCK-1 receptors is reported as “nanomolar level”. For the same compound, in the experiment on CCK-2 receptor [2], the “index derived from the ratio” value was more than 4286.
In the same order, the values of `Cc1ccccc1CCC(NC(=O)c1ccccc1NC(=O)c1cc2cc(F)ccc2[nH]1)C(=O)O` (centres unmarked) [Compound 26] are 9 nM, 5150 nM, 43 nM, “nanomolar level” and 572.2.
With `O=C(Nc1ccccc1C(=O)N[C@H](CCc1ccccc1)C(=O)O)c1cc2ccccc2[nH]1` [Compound 21], the concentration for half-maximal inhibition (IC50) on CCK-1 receptors amounted to 9 nM; at CCK-2 receptor [1] it was 3800 nM; in experiment [3], 20 nM. Besides, at CCK-1 receptors, the “affinity for the CCK-1 receptors” value is listed as “nanomolar level”. For the same compound, the “index derived from the ratio” value with CCK-2 receptor [2] was determined as 422.2.
As to `O=C(Nc1ccccc1C(=O)NC(CCc1ccccc1)C(=O)O)c1cc2cc(F)ccc2[nH]1` (centres unmarked) [Compound 23], the values for the concentration for half-maximal inhibition (IC50) (at CCK-1 receptors (setting [4]); at CCK-2 receptor [1]; in experiment [3]) were 7 nM, 10800 nM and 15 nM, respectively. The “affinity for the CCK-1 receptors” value on CCK-1 receptors is on record as “nanomolar level”. Moreover, the “index derived from the ratio” value with CCK-2 receptor [2] came to 1542.9.
On the same counts, the results for `COc1ccccc1CCC(NC(=O)c1ccccc1NC(=O)c1cc2ccccc2[nH]1)C(=O)O` (centres unmarked) [Compound 30] are 8 nM, 3500 nM, 30 nM, “nanomolar level” and 437.5.
For the compound `COc1cccc(CCC(NC(=O)c2ccccc2NC(=O)c2cc3ccccc3[nH]2)C(=O)O)c1` (centres unmarked) [Compound 31], the IC50 at CCK-1 receptors (setting [4]) turned out to be 10 nM; at CCK-2 receptor [1] it was 3400 nM. Further, the “index derived from the ratio” value with CCK-2 receptor [2] turned out to be 340.
On the same counts, the results for `CCCCCCC(NC(=O)c1ccccc1NC(=O)c1cc2ccccc2[nH]1)C(=O)O` (centres unmarked) [Compound 39] are 20 nM, more than 30000 nM and more than 1500.
For the compound `CCC(CC)CC(NC(=O)c1ccccc1NC(=O)c1cc2ccccc2[nH]1)C(=O)O` (centres unmarked) [Compound 46], the values for the IC50 at CCK-1 receptors (setting [4]) and on CCK-2 receptor [1] were 30 nM and 2670 nM, respectively. The “index derived from the ratio” value with CCK-2 receptor [2] was determined as 89.
